Results as given in US9725465B2, “Biaryl acetamide compounds and methods of use thereof” (Ambit Biosciences Corporation, priority 2013, dated 2017).

Experiments:
FLT3 kinase = FLT3 kinase (Homo sapiens (Human), UniProt P36888); experiment: Competition binding assay (Kd), FLT3; conditions: competition binding assay
KIT kinase = KIT kinase (Homo sapiens (Human), UniProt P10721); experiment: Competition binding assay (Kd), KIT; conditions: competition binding assay
Procedure, shortened: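 Kinase, as T7 phage fusion or HEK-293-expressed DNA-tagged protein, competed off immobilised ligand beads by test compound (eleven-point threefold dilutions, from 100× DMSO stocks). Eluted kinase quantified by qPCR to derive Kd; DMSO used as control.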

FLT3-ITD = FLT3-ITD (Homo sapiens (Human), UniProt P36888, INS600HVDFREYEYD); experiment: pFLT3 MSD assay, Ba/F3 FLT3-ITD; format: cell-based; conditions: Ba/F3 FLT3-ITD cells, 2 hours, read-out: BaF3-FLT3-ITD pFlt3 IC50
Chain of FLT3-ITD (P36888 other isoform, or with tags, fused parts or gaps limits assumed, stated change not applied): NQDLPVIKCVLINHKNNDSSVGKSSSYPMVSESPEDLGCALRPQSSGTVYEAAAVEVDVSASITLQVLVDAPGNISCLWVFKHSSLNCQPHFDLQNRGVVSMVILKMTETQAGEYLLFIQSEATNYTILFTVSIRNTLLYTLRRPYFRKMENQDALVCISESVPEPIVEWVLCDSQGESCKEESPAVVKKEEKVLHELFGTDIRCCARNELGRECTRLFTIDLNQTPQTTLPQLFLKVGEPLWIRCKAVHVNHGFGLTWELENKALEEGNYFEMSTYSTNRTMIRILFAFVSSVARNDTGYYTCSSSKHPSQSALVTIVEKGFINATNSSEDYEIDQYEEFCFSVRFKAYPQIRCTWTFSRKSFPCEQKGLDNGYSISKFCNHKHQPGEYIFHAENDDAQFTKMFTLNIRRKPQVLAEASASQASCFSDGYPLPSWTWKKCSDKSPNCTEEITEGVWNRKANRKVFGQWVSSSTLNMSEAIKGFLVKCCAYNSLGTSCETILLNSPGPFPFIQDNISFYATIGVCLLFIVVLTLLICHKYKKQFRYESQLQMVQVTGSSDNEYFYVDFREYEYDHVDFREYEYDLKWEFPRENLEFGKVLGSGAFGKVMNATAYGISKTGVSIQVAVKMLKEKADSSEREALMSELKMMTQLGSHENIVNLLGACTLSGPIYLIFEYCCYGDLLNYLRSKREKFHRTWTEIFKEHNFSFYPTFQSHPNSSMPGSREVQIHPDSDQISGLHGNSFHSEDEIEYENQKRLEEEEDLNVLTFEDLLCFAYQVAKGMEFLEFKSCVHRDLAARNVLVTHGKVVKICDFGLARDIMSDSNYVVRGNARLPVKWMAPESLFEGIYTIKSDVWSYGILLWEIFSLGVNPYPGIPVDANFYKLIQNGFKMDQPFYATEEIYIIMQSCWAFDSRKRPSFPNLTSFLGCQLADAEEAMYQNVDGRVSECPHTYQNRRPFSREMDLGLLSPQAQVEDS

Chain of FLT3 kinase (P36888 27-993): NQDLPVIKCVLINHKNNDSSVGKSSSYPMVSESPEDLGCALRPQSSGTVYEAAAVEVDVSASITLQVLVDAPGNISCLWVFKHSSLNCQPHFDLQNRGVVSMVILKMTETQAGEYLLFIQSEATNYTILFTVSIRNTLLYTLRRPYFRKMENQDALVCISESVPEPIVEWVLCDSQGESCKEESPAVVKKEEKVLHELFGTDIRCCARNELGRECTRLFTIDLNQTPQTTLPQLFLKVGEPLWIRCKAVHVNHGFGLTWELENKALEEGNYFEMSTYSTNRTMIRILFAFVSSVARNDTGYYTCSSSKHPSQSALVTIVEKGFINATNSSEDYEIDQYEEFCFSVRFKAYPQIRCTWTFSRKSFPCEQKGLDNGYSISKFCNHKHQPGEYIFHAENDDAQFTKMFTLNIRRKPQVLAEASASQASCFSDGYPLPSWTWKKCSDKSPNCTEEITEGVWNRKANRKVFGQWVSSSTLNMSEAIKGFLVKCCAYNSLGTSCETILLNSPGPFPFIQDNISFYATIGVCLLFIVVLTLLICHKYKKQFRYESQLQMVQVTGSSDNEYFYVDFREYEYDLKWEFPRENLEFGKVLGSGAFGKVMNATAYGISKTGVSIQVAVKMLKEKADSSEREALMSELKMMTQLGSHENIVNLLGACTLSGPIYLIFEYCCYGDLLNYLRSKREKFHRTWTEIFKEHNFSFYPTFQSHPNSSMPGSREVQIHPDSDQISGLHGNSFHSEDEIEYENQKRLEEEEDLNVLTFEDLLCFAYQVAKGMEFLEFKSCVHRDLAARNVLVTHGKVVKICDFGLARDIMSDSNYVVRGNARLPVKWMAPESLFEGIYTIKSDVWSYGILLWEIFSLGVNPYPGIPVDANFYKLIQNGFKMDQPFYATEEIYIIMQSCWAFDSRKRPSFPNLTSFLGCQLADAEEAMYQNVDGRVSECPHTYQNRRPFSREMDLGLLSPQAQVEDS
Chain of KIT kinase (P10721 26-976): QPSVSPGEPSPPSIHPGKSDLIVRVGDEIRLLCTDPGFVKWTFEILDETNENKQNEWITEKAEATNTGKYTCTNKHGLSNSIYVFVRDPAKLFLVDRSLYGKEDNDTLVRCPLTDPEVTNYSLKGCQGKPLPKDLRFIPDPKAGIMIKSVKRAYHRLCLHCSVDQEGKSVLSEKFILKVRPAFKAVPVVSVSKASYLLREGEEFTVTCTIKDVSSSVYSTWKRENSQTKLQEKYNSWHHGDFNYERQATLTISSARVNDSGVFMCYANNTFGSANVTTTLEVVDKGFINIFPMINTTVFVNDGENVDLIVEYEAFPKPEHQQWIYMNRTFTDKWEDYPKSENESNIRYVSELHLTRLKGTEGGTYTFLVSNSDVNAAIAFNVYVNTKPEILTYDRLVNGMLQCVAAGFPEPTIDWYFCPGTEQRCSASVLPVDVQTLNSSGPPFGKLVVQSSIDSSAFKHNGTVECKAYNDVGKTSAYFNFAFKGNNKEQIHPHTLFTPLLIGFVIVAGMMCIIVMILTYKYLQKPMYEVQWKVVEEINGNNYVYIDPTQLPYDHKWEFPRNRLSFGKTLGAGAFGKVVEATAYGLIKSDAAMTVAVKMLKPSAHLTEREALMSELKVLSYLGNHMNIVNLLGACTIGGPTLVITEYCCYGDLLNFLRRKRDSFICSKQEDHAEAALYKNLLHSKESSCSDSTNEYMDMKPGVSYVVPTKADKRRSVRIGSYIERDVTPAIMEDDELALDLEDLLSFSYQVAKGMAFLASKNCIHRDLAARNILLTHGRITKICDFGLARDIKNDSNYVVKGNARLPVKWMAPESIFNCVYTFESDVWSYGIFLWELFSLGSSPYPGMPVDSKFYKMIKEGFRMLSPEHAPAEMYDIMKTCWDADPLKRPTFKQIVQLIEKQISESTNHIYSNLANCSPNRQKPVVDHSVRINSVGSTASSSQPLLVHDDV

Row | Structure (SMILES) | Kd (FLT3 kinase) [nM] | Kd (KIT kinase) [nM] | IC50 (FLT3-ITD) [nM]
1 | CN(C)CCNC(=O)c1n[nH]c2ncc(-c3ccc(CC(=O)Nc4cc(C(C)(C)C)on4)cc3)cc12 [Example 100, 5-[4-[2-[(5-tert-butylisoxazol-3-yl)amino]-2-oxo-ethyl]phenyl]-N-[2-(dimethylamino)ethyl]-1H-pyrazolo[3,4-b]pyridine-3-carboxamide] | < 5 | 5 to 20 | < 10
2 | CC(C)(C)c1cc(NC(=O)Cc2ccc(-c3cnc4[nH]nc(-n5nccn5)c4c3)cc2)no1 [Example 101, N-(5-tert-butylisoxazol-3-yl)-2-[4-[3-(triazol-2-yl)-1H-pyrazolo[3,4-b]pyridin-5-yl]phenyl]acetamide] | < 5 | < 5 | < 10
3 | O=C(Cc1ccc(-c2cnc3[nH]nc(OCC(F)F)c3c2)cc1F)Nc1cc(C2(C(F)(F)F)CC2)on1 [Example 102, 2-[4-[3-(2,2-difluoroethoxy)-1H-pyrazolo[3,4-b]pyridin-5-yl]-2-fluoro-phenyl]-N-[5-[1-(trifluoro-methyl)cyclopropyl]isoxazol-3-yl]acetamide] | < 5 | < 5 | < 10
4 | CC(C)(C)c1cc(NC(=O)Cc2ccc(-c3cnc4[nH]nc(-n5ccnn5)c4c3)cc2)no1 [Example 103, N-(5-tert-butylisoxazol-3-yl)-2-[4-[3-(triazol-1-yl)-1H-pyrazolo[3,4-b]pyridin-5-yl]phenyl]acetamide] | < 5 | < 5 | < 10
5 | O=C(Cc1ccc(-c2cnc3[nH]nc(OCCF)c3c2)cc1F)Nc1cc(C2(C(F)(F)F)CC2)on1 [Example 104, 2-[2-fluoro-4-[3-(2-fluoroethoxy)-1H-pyrazolo[3,4-b]pyridin-5-yl]phenyl]-N-[5-[1-(trifluoro-methyl)cyclopropyl]isoxazol-3-yl]acetamide] | < 5 | < 5 | < 10
6 | O=C(Cc1ccc(-c2cnc3[nH]c(C(=O)O)cc3c2)cc1F)Nc1cc(C2(C(F)(F)F)CC2)on1 [Example 106, 5-[3-fluoro-4-[2-oxo-2-[[5-[1-(trifluoromethyl)cyclo-propyl]isoxazol-3-yl]amino]ethyl]phenyl]-1H-pyrrolo[2,3-b]pyridine-2-carboxylic acid] | < 5 | < 5 | 10 to 20
7 | CS(=O)(=O)CCNC(=O)c1cc2cc(-c3ccc(CC(=O)Nc4cc(C5(C(F)(F)F)CC5)on4)c(F)c3)cnc2[nH]1 [Example 107, 5-[3-fluoro-4-[2-oxo-2-[[5-[1-(trifluoromethyl)cyclo-propyl]isoxazol-3-yl]amino]ethyl]phenyl]-N-(2-methylsulfonylethyl)-1H-pyrrolo[2,3-b]pyridine-2-carboxamide] | < 5 | < 5 | < 10
8 | CN(C)CCNC(=O)c1cc2cc(-c3ccc(CC(=O)Nc4cc(C5(C(F)(F)F)CC5)on4)c(F)c3)cnc2[nH]1 [Example 108, N-[2-(dimethylamino)ethyl]-5-[3-fluoro-4-[2-oxo-2-[[5-[1-(trifluoromethyl)cyclo-propyl]isoxazol-3-yl]amino]ethyl]phenyl]-1H-pyrrolo[2,3-b]pyridine-2-carboxamide] | < 5 | < 5 | < 10
9 | Cn1cc(-c2n[nH]c3ncc(-c4ccc(CC(=O)Nc5cc(C(C)(C)C)on5)cc4)cc23)cn1 [Example 109, N-(5-tert-butylisoxazol-3-yl)-2-[4-[3-(1-methylpyrazol-4-yl)-1H-pyrazolo[3,4-b]pyridin-5-yl]phenyl]acetamide] | < 5 | < 5 | < 10
10 | CN(C)C1CCN(C(=O)c2cc3cc(-c4ccc(CC(=O)Nc5cc(C6(C(F)(F)F)CC6)on5)c(F)c4)cnc3[nH]2)C1 (stereo not drawn) [Example 110, 2-[4-[2-[3-(dimethylamino)pyrrolidine-1-carbonyl]-1H-pyrrolo[2,3-b]pyridin-5-yl]-2-fluoro-phenyl]-N-[5-[1-(trifluoro-methyl)cyclopropyl]isoxazol-3-yl]acetamide] | < 5 | < 5 | < 10
11 | O=C(Cc1ccc(-c2cnc3[nH]c(C(=O)N4CC(O)C4)cc3c2)cc1F)Nc1cc(C2(C(F)(F)F)CC2)on1 [Example 111, 2-[2-fluoro-4-[2-(3-hydroxyazetidine-1-carbonyl)-1H-pyrrolo[2,3-b]pyridin-5-yl]phenyl]-N-[5-[1-(trifluoro-methyl)cyclopropyl]isoxazol-3-yl]acetamide] | < 5 | < 5 | < 10
12 | O=C(Cc1ccc(-c2cnc3[nH]c(C(=O)NC4CNC4)cc3c2)cc1F)Nc1cc(C2(C(F)(F)F)CC2)on1 [Example 112, N-(azetidin-3-yl)-5-[3-fluoro-4-[2-oxo-2-[[5-[1-(trifluoromethyl)cyclo-propyl]isoxazol-3-yl]amino]ethyl]phenyl]-1H-pyrrolo[2,3-b]pyridine-2-carboxamide] | < 5 | < 5 | < 10
13 | CN1CC(NC(=O)c2cc3cc(-c4ccc(CC(=O)Nc5cc(C6(C(F)(F)F)CC6)on5)c(F)c4)cnc3[nH]2)C1 [Example 113, 5-[3-fluoro-4-[2-oxo-2-[[5-[1-(trifluoromethyl)cyclo-propyl]isoxazol-3-yl]amino]ethyl]phenyl]-N-(1-methylazetidin-3-yl)-1H-pyrrolo[2,3-b]pyridine-2-carboxamide] | < 5 | < 5 | < 10
14 | CC(C)(c1cc(NC(=O)Cc2ccc(-c3cnc4[nH]nc(OCCOC(F)(F)F)c4c3)cc2F)no1)C(F)(F)F [Example 114, 2-[2-fluoro-4-[3-[2-(trifluoromethoxy)ethoxy]-1H-pyrazolo[3,4-b]pyridin-5-yl]phenyl]-N-[5-(2,2,2-trifluoro-1,1-dimethyl-ethyl)isoxazol-3-yl]acetamide] | < 5 | 5 to 20 | < 10
15 | COc1cc2ncc(-c3ccc(CC(=O)Nc4cc(C(C)(C)C(F)(F)F)on4)c(F)c3)cc2c(OC)c1OC [Example 115, 2-[2-fluoro-4-(5,6,7-trimethoxy-3-quinolyl)phenyl]-N-[5-(2,2,2-trifluoro-1,1-dimethyl-ethyl)isoxazol-3-yl]acetamide] | < 5 | 5 to 20 | < 10
16 | COc1cc2ncc(-c3ccc(CC(=O)Nc4cc(C(C)(C)C)on4)cc3)cc2c(OC)c1OC [Example 116, N-(5-tert-butylisoxazol-3-yl)-2-[4-(5,6,7-trimethoxy-3-quinolyl)phenyl]acetamide] | < 5 | < 5 | < 10
17 | CN(C)NC(=O)c1cc2cc(-c3ccc(CC(=O)Nc4cc(C5(C(F)(F)F)CC5)on4)c(F)c3)cnc2[nH]1 [Example 117, 2-[4-[2-(dimethylaminocarbamoyl)-1H-pyrrolo[2,3-b]pyridin-5-yl]-2-fluoro-phenyl]-N-[5-[1-(trifluoro-methyl)cyclopropyl]isoxazol-3-yl]acetamide] | < 5 | < 5 | < 10
18 | CCOc1cc2ncc(-c3ccc(CC(=O)Nc4cc(C5(C(F)(F)F)CC5)on4)c(F)c3)nc2cc1OCC [Example 118, 2-[4-(6,7-diethoxyquinoxalin-2-yl)-2-fluoro-phenyl]-N-[5-[1-(trifluoromethyl)cyclo-propyl]isoxazol-3-yl]acetamide] | < 5 | < 5 | < 10
19 | O=C(Cc1ccc(-c2cnc3cc4c(cc3n2)OCO4)cc1F)Nc1cc(C2(C(F)(F)F)CC2)on1 [Example 119, 2-[4-([1,3]dioxolo[4,5-g]quinoxalin-6-yl)-2-fluoro-phenyl]-N-[5-[1-(trifluoro-methyl)cyclopropyl]isoxazol-3-yl]acetamide] | < 5 | < 5 | < 10
20 | COCCOc1cc2ncc(-c3ccc(CC(=O)Nc4cc(C(C)(C)C)on4)cc3)nc2cc1OCCOC [Example 120, 2-[4-[6,7-bis(2-methoxyethoxy)quinoxalin-2-yl]phenyl]-N-(5-tert-butylisoxazol-3-yl)acetamide] | < 5 | < 5 | < 10
21 | O=C(Cc1ccc(-c2cnc3cc4c(cc3n2)OC[C@@H](CO)O4)cc1F)Nc1cc(C2(C(F)(F)F)CC2)on1 [Example 121, 2-[2-fluoro-4-[(2R)-2-(hydroxymethyl)-2,3-dihydro-[1,4]dioxino[2,3-g]quinoxalin-7-yl]phenyl]-N-[5-[1-(trifluoro-methyl)cyclopropyl]isoxazol-3-yl]acetamide] | < 5 | < 5 | < 10
22 | O=C(Cc1ccc(-c2cnc3cc4c(cc3n2)O[C@H](CO)CO4)cc1F)Nc1cc(C2(C(F)(F)F)CC2)on1 [Example 122, 2-[2-fluoro-4-[(3R)-3-(hydroxymethyl)-2,3-dihydro-[1,4]dioxino[2,3-g]quinoxalin-7-yl]phenyl]-N-[5-[1-(trifluoro-methyl)cyclopropyl]isoxazol-3-yl]acetamide] | < 5 | < 5 | < 10
23 | COc1cc2nc(N)c(-c3ccc(CC(=O)Nc4cc(C5(C(F)(F)F)CC5)on4)c(F)c3)nc2cc1OC [Example 123, 2-[4-(3-amino-6,7-dimethoxy-quinoxalin-2-yl)-2-fluoro-phenyl]-N-[5-[1-(trifluoro-methyl)cyclopropyl]isoxazol-3-yl]acetamide] | < 5 | < 5 | < 10
24 | COc1cc2nc(OC)c(-c3ccc(CC(=O)Nc4cc(C5(C(F)(F)F)CC5)on4)c(F)c3)nc2cc1OC [Example 124, 2-[2-fluoro-4-(3,6,7-trimethoxyquinoxalin-2-yl)phenyl]-N-[5-[1-(trifluoro-methyl)cyclopropyl]isoxazol-3-yl]acetamide] | < 5 | 5 to 20 | 10 to 20
